In the oligonucleotide strings, read from the 5' end, every base follows the letter of its sugar. An asterisk marks phosphorothioate; unmarked linkages are phosphodiester. Other units and linkages are bracketed, terminal groups are in braces. A string of capitals states the bases alone. e = 2'-O-(2-methoxyethyl) (MOE); [5mC] = 5-methylcytosine
Experiments:
[1] = system: HSL; experiment: HSL mRNA expression in adipocytes (real-time PCR); type: cell-based, human; settings: differentiating adipocytes transfected with oligomeric compound; Table 75
[2] = system: Glut4; experiment: Glut4 mRNA expression in adipocytes (real-time PCR); type: cell-based, human; settings: differentiating adipocytes transfected with oligomeric compound; Table 75
[3] = system: PPARγ; experiment: PPARγ mRNA expression in adipocytes (real-time PCR); type: cell-based, human; settings: differentiating adipocytes transfected with oligomeric compound; Table 75
[4] = system: HuVECs; experiment: Endothelial tube formation assay in HuVECs; settings: 75 nM oligomeric compound
Protocol: In some embodiments, HUVECs are used to measure the effects of oligomeric compounds of the invention on endothelial tube formation activity. The tube formation assay is performed using an in vitro Angiogenesis Assay Kit (Chemicon International, Temecula, Calif.).
Untreated control cells receive LIPOFECTIN™ only.
Approximately fifty hours after transfection, cells are transferred to 96-well plates coated with ECMatrix™ (Chemicon International). Under these conditions, untreated HUVECs form tube-like structures. After an overnight incubation at 37° C., treated and untreated cells are inspected by light microscopy. Tube formation in cells treated with oligomeric compounds is compared to that in untreated control cells. Individual wells are assigned discrete scores from 1 to 5 depending on the extent of tube formation. A score of 1 refers to a well with no tube formation while a score of 5 is given to wells where all cells are forming an extensive tubular network.
In one embodiment, primary human umbilical vein endothelial cells (HuVECs) were used to measure the effects of oligomeric compounds targeted to miRNAs on tube formation activity. HuVECs were routinely cultured in EBM (Clonetics Corporation, Walkersville, Md.) supplemented with SingleQuots supplements (Clonetics Corporation, Walkersville, Md.). […] HuVECs are plated at 3000 cells/well in 96-well plates. One day later, cells are transfected with oligomeric compounds. The tube formation assay is performed using an in vitro Angiogenesis Assay Kit (Chemicon International, Temecula, Calif.).
ISIS 29248 and ISIS 196103 are chimeric 5-10-52′-MOE gapmer oligonucleotides. […] All cytidine residues are 5-methylcytidines. ISIS 342672 (SEQ ID NO: 789) contains 13 mismatches with respect to the mature mir-143 miRNA, and was also used as a negative control. ISIS 342672 is a uniform 2′-MOE phosphorothioate oligomeric compound 22 nucleotides in length. All cytidine residues are 5-methylcytidines.
Oligomeric compound was mixed with LIPOFECTIN™ (Invitrogen Life Technologies, Carlsbad, Calif.) in OPTI-MEM™ (Invitrogen Life Technologies, Carlsbad, Calif.) to achieve a final concentration of 75 nM of oligomeric compound and 2.25 μg/mL LIPOFECTIN™. Before adding to cells, the oligomeric compound, LIPOFECTIN™ and OPTI-MEM™ were mixed thoroughly and incubated for 0.5 hrs. Untreated control cells received LIPOFECTIN™ only. […] Compounds targeted to miRNAs were tested in triplicate, and ISIS 29848 was tested in up to six replicates. […] 100 μL of full growth medium was added to each well. Fifty hours after transfection, cells are transferred to 96-well plates coated with ECMa-trix™ (Chemicon Inter-national). Under these conditions, untreated HuVECs form tube-like structures.

[5] = system: IGFBP-1; experiment: IGFBP-1 mRNA expression in HepG2 cells; type: cell-based, human; settings: for IGFBP1 mRNA expression: Experiment 2, insulin treated: HepG2 cells transfected with oligomeric compound, 1 nM insulin for four hours, UTC + 1 nM insulin = 100; for IGFBP1 mRNA: HepG2 cells, Experiment 1, basal (no insulin), four hours, UTC = 100
[6] = system: aP2; experiment: aP2 mRNA expression in adipocytes (real-time PCR); type: cell-based, human; settings: differentiating adipocytes transfected with oligomeric compound; Table 75

| Substance | HSL mRNA [1] | GLUT4 mRNA [2] | PPAR gamma mRNA [3] | % Activity Relative to UTC (tube formation) ([4]; Table 58) [%] | IGFBP1 mRNA expression [5] | IGFBP1 mRNA [5] | aP2 mRNA [6] | % Activity Relative to UTC (tube formation) ([4]; Table 59) [%] | % Activity Relative to UTC (tube formation) ([4]; Table 56) [%] |
| --- | --- | --- | --- | --- | --- | --- | --- | --- | --- |
| 327946 (antisense eA*eG*eG*e[5mC]*eG*eA*eA*eG*eG*eA*eT*eG*eA*e[5mC]*eA*eA*eA*eG*eG*eG*eA*eA) [compound 327946] | 76 percentage of untreated control (UTC) | 68 percentage of untreated control (UTC) | 81 percentage of untreated control (UTC) | 51.9 | 138 | 108 | 73 percentage of untreated control (UTC) | – | – |
| 327950 (antisense eT*e[5mC]*eA*eG*eT*eT*eT*eT*eG*e[5mC]*eA*eT*eA*eG*eA*eT*eT*eT*eG*e[5mC]*eA*e[5mC]*eA) [compound 327950] | 94 percentage of untreated control (UTC) | 104 percentage of untreated control (UTC) | 93 percentage of untreated control (UTC) | – | 124 | 109 | 95 percentage of untreated control (UTC) | 73.3 | – |
| 327944 (antisense eA*eA*eA*eG*eT*eG*eT*e[5mC]*eA*eG*eA*eT*eA*e[5mC]*eG*eG*eT*eG*eT*eG*eG) [compound 327944] | 55 percentage of untreated control (UTC) | 28 percentage of untreated control (UTC) | 64 percentage of untreated control (UTC) | 37.0 | – | – | 71 percentage of untreated control (UTC) | – | – |
| 327940 (antisense eG*eA*eA*e[5mC]*eA*eG*eG*eT*eA*eG*eT*e[5mC]*eT*eG*eA*eA*e[5mC]*eA*e[5mC]*eT*eG*eG*eG) [compound 327940] | 67 percentage of untreated control (UTC) | 43 percentage of untreated control (UTC) | 64 percentage of untreated control (UTC) | 59.3 | – | – | 62 percentage of untreated control (UTC) | – | – |
| 327924 (antisense eG*e[5mC]*eA*eA*eG*e[5mC]*e[5mC]*e[5mC]*eA*eG*eA*e[5mC]*e[5mC]*eG*e[5mC]*eA*eA*eA*eA*eA*eG) [compound 327924] | – | – | – | 88.9 | – | – | – | – | – |
| 327936 (antisense eA*e[5mC]*eA*eG*e[5mC]*eT*eG*eG*eT*eT*eG*eA*eA*eG*eG*eG*eG*eA*e[5mC]*e[5mC]*eA*eA) [compound 327936] | 40 percentage of untreated control (UTC) | 6 percentage of untreated control (UTC) | 47 percentage of untreated control (UTC) | 51.9 | – | – | 40 percentage of untreated control (UTC) | – | – |
| 327945 (antisense e[5mC]*eT*eG*eT*eT*e[5mC]*e[5mC]*eT*eG*e[5mC]*eT*eG*eA*eA*e[5mC]*eT*eG*eA*eG*e[5mC]*e[5mC]*eA) [compound 327945] | 41 percentage of untreated control (UTC) | 26 percentage of untreated control (UTC) | 51 percentage of untreated control (UTC) | 59.3 | – | – | 43 percentage of untreated control (UTC) | – | – |
| 327952 (antisense e[5mC]*eT*eA*e[5mC]*eG*e[5mC]*eG*eT*eA*eT*eT*e[5mC]*eT*eT*eA*eA*eG*e[5mC]*eA*eA*eT*eA) [compound 327952] | 64 percentage of untreated control (UTC) | 61 percentage of untreated control (UTC) | 84 percentage of untreated control (UTC) | – | 103 | 123 | 56 percentage of untreated control (UTC) | 53.3 | – |
| 327873 (antisense e[5mC]*eT*eA*e[5mC]*e[5mC]*eA*eT*eA*eG*eG*eG*eT*eA*eA*eA*eA*e[5mC]*e[5mC]*eA*e[5mC]*eT) [compound 327873] | 116 percentage of untreated control (UTC) | 106 percentage of untreated control (UTC) | 104 percentage of untreated control (UTC) | – | – | 108 | 113 percentage of untreated control (UTC) | – | 100.0 |
| 327965 (antisense eA*eT*e[5mC]*eA*e[5mC]*eA*eT*eA*eG*eG*eA*eA*eT*eA*eA*eA*eA*eA*eG*e[5mC]*e[5mC]*eA*eT*eA) [compound 327965] | 84 percentage of untreated control (UTC) | 88 percentage of untreated control (UTC) | 91 percentage of untreated control (UTC) | – | 105 | 106 | 67 percentage of untreated control (UTC) | 100.0 | – |
| 327949 (antisense e[5mC]*eA*e[5mC]*eA*eA*eA*eT*eT*e[5mC]*eG*eG*eA*eT*e[5mC]*eT*eA*e[5mC]*eA*eG*eG*eG*eT*eA) [compound 327949] | 49 percentage of untreated control (UTC) | 20 percentage of untreated control (UTC) | 54 percentage of untreated control (UTC) | – | 172 | 112 | 52 percentage of untreated control (UTC) | 66.7 | – |
| 327935 (antisense e[5mC]*eT*eA*e[5mC]*e[5mC]*eT*eG*e[5mC]*eA*e[5mC]*eT*eA*eT*eA*eA*eG*e[5mC]*eA*e[5mC]*eT*eT*eT*eA) [compound 327935] | 61 percentage of untreated control (UTC) | 47 percentage of untreated control (UTC) | 67 percentage of untreated control (UTC) | 74.1 | – | – | 60 percentage of untreated control (UTC) | – | – |
| 327957 (antisense e[5mC]*eA*e[5mC]*eA*eA*eG*eT*eT*e[5mC]*eG*eG*eA*eT*e[5mC]*eT*eA*e[5mC]*eG*eG*eG*eT*eT) [compound 327957] | 15 percentage of untreated control (UTC) | 11 percentage of untreated control (UTC) | 68 percentage of untreated control (UTC) | – | 184 | 143 | 23 percentage of untreated control (UTC) | 66.7 | – |
| 327961 (antisense eG*eG*eG*eG*eT*eA*eT*eT*eT*eG*eA*e[5mC]*eA*eA*eA*e[5mC]*eT*eG*eA*e[5mC]*eA) [compound 327961] | 88 percentage of untreated control (UTC) | 101 percentage of untreated control (UTC) | 95 percentage of untreated control (UTC) | – | 160 | 150 | 91 percentage of untreated control (UTC) | 53.3 | – |
| 327971 (antisense eG*eG*eA*eA*eA*eT*e[5mC]*e[5mC]*e[5mC]*eT*eG*eG*e[5mC]*eA*eA*eT*eG*eT*eG*eA*eT) [compound 327971] | 38 percentage of untreated control (UTC) | 60 percentage of untreated control (UTC) | 69 percentage of untreated control (UTC) | – | – | – | 49 percentage of untreated control (UTC) | – | – |
| 327964 (antisense e[5mC]*e[5mC]*eA*eA*eG*eT*eT*e[5mC]*eT*eG*eT*e[5mC]*eA*eT*eG*e[5mC]*eA*e[5mC]*eT*eG*eA) [compound 327964] | 102 percentage of untreated control (UTC) | 114 percentage of untreated control (UTC) | 93 percentage of untreated control (UTC) | – | 121 | 100 | 96 percentage of untreated control (UTC) | 86.7 | – |
| 327958 (antisense e[5mC]*e[5mC]*eG*eG*e[5mC]*eT*eG*e[5mC]*eA*eA*e[5mC]*eA*e[5mC]*eA*eA*eG*eA*e[5mC]*eA*e[5mC]*eG*eA) [compound 327958] | 5 percentage of untreated control (UTC) | 5 percentage of untreated control (UTC) | 55 percentage of untreated control (UTC) | – | 149 | 119 | 10 percentage of untreated control (UTC) | 40.0 | – |
